Experimental data taken from patent US20150329483A1, “Methods and Pharmaceutical Compositions for the Treatment of X-Linked Charcot-Marie-Tooth” (INSERM (Institut National de la Santé et de la Recherche …, priority 2012, published 2015).

How the values were obtained:
[1] = test system: S3 cells; experiment: Connexon activity of S3 cells treated with KN62 and KN93 derivatives; type: cell-based, mouse; details: for Connexon activity at 0.1 μM / Connexon activity at 1 μM / Connexon activity at 10 μM / Connexon activity at 50 μM: 24 hours of treatment
Protocol: Animal cells and wild-type mouse cells transgenic animals S3 created in the as described in EXAMPLE 13 are cultured in 96-well microplates. We have shown that the S3 cells have an abnormality of the connexon activity due to the mutation of connexin 32 introduced in this line. […] The cells were incubated with new molecules and connexon activity was evaluated. […] Regarding KN93 derivatives most substitutions suppress the activity “correction activity connexon” molecules, excepting for a few molecules.
S3 cells were treated with various molecules, at increasing concentrations. Moreover transgenic animals of the same lineage cells and untreated transgenic animals are used as controls. The connexon activity was assessed after 24 hours of treatment. The activity is expressed in thousands of arbitrary fluorescence units. […] As a comparison we use the reference molecule KN 93 at a concentration of 10 μM.

[2] = test system: S3 fibroblasts; experiment: Nuclear volume evaluation (DAPI, ImageJ) in cultured fibroblasts; type: cell-based, mouse; details: for Nuclear Volume: S3 fibroblasts cultured 24 hrs with CamKII inhibitor, WT 8607, untreated S3 15029; for Effect on nuclear (cellular) volume, in words: S3 fibroblasts treated with inhibitor
Protocol: (§1) For the isolation of fibroblasts a small fragment of mouse ear was removed, dipped in alcohol solution, cut into small pieces in a sterile Petri dish in the presence of PBS containing fungicide (fonigizon) diluted 1/250, and transferred to 2-ml tubes containing 1 ml dissociation buffer (DMEM plus 20% FBS, 1 mg/ml BSA, 0.5 mg/ml collagenase, 0.25 mg/ml trypsin and penicillin/streptomycin). The tubes were incubated in a water bath with agitation for 1 h at 37° C. Fibroblast medium (DMEM, 10% FBS, 2 mM Gln, 100 U/ml penicillin, 100 μg/ml streptomycin) was added to each tube and the samples were centrifuged at 400 g for 10 min. The cells were re-suspended in fibroblast medium, seeded into Petri dishes and placed in an incubator at 37° C., 5% CO2. The culture medium was replaced every two days. When the cultures reached sub-confluence, the cells were trypsinized and expanded into tissue culture flasks. All experiments were performed using cells between passage numbers four and eight.
Nuclei were stained with DAPI and nuclear volume was evaluated with ImageJ software.
Nuclear volume correction. Fibroblasts from Wild type (WT) and S3 transgenic mouse have been cultured for 24 hrs with or without CamKII inhibitors (KN62 and KN93). Nuclear volume has been evaluated using the Imagej software. […] This experiment has been repeated three time.

[3] = test system: S3 fibroblasts; experiment: Centrosome number per cell (γ-tubulin labelling); type: cell-based, mouse; details: for >centro (percentage of cells with more than two centrosomes) / 2 centro (percentage of cells with two centrosomes) / 1 centro (percentage of cells with one centrosome): S3 fibroblasts cultured with inhibitor; for >centro (percentage of cells with more than two centrosomes): WT 3, untreated S3 18; for 2 centro (percentage of cells with two centrosomes): WT 18, untreated S3 22; for 1 centro (percentage of cells with one centrosome): WT 79%, untreated S3 60%; for Effect on centrosome number per cell, in words: S3 fibroblasts treated with inhibitor
Protocol: as §1
Cells were grown on glass coverslips for 24 h to allow cultures to reach 80% confluence. To measure the number of centrosomes, cells were fixed with 4% PFA, permeabilized with methanol at −20° C. for 8 min and blocked with 0.5% Triton X-100 in PBS for 30 min at RT. To detect g-tubulin, cells were incubated overnight at 4° C. with a mouse anti-g-tubulin antibody (GTU-88; Sigma) diluted 1/1000 in PBS containing 0.1% milk and 0.05% Triton X-100. After washing, the cells were incubated for 1 h at RT with Cy3-conjugated goat antimouse IgG secondary antibody (Caltag Laboratories) diluted 1/2000 in PBS containing 0.1% milk and 0.05% Triton X-100. The preparations were counterstained with DAPI in Vectashield mounting medium (Vector Laboratories). Fluorescent images were acquired with a microscope (Leica DMR) equipped with a PL APO objective.
Number of centrosomes per cell. Fibroblasts from WT and S3 have been cultured with or without CamKII inhibitors. Centrosome number per cell has been evaluated as described in methods. […] This experiment has been repeated three time.

[4] = test system: CamKII; details: cited from earlier work
[5] = test system: G2 transgenic line (mutated human Cx32 G12S); experiment: Rotarod locomotor test, G2 transgenic line; type: in vivo, mouse
Protocol: FIG. 4. Mice from the G2 line were treated either with a placebo (4 animals) or with soluble KN93 (4 animals, 1.5 mg/kg, i.p., 1 administration per day) for one month and performances on the rotarod evaluated. Treatment was then stopped and locomotor performances evaluated one month later.
(§2) Transgenic animals received intraperitoneal injections, either with a placebo (0.9% physiological serum) or with KN 93 (1.5 mg/kg). Treatment took place every day for one month.
(§3) Locomotor ability was tested using the rotarod procedure, requiring motor coordination and balance control. A machine manufactured by Bioseb was used for this purpose. A previously used procedure (Norreel et al., 2001) was adapted and two velocities (15 and 25) were used. Briefly, each mouse underwent the same 5-day procedure. The first two days were used to train the animals (five sessions of 2-min walking at a very low speed, i.e. five rotations per minute (r.p.m.)). The last three days were used to run the test sessions. Each day, the mice performed two series of five trials, a training speed with a 1-h rest period between the two series and a 5-min rest period between two consecutive trials. The software provided by Bioseb (Sedacom v1) was used to monitor the time the animals were on the rod.
(§4) Mouse from the G2 transgenic line have been treated either with a placebo (4 animals) or with soluble KN93 (4 animals). Locomotor performances of the animals have been evaluated using the rotarod test after one month of treatment. Performances of WT and G2 treated with KN93, are not statistically different. On the contrary performances of G2 animals treated either with a placebo or with KN93 are highly statistically significant (p value<0.0001). Treatment has been stopped for one month and rotarod performances evaluated. Rotarod performances of KN 93 treated or placebo treated degrade and are not statically different.

[6] = test system: S3 fibroblasts; experiment: Connexon activity, lucifer yellow uptake, 96 well plate; type: cell-based, mouse
Protocol: FIG. 3. A. Connexon activity in fibroblasts from WT, S3 and S3 treated with KN93 was monitored in a 96 well plate assay, using lucifer yellow as a fluorescent dye (see methods). Fluorescence is in arbitrary units. B, C and D. Connexon activity of WT mouse fibroblasts (B), S3 transgenic mouse (C) and S3 incubated with KN93 (D), were incubated with LY for two hours and examined under a fluorescent microscope.
One hundred thousand cells were cultured as described above for one day with or without CamKII inhibitors (KN62 or KN93 at a final concentration of 10 μM). Lucifer yellow (LY) was added to the medium (final concentration: 110 mM) and incubated for two hours. Fluorescence was recorded using a Perkin Elmer Victor 4 microplaque reader (excitation: 405 nm, emission: 535 nm).
Fibroblasts from WT and S3 (treated or not with KN93) have been cultured for 2 days in 96 wells microplaques. Lucifer yellow has been then added to the medium and fluorescence monitored after 2 hours (cell auto fluorescence and fluorescence of LY without cells, have been evaluated and substracted). This experiment has been repeated three time.

[7] = test system: S3 transgenic line (mutated human Cx32 S26L); experiment: Rotarod locomotor test, S3 transgenic line; type: in vivo, mouse
Protocol: as §2, §3
as §4, with “Mouse (4)” for “Mouse”, “S3” for “G2”, “placebo” for “placebo (4 animals)”, “KN93.” for “KN93 (4 animals).”, “statistically” for “statically”

SMILES: COc1ccc(S(=O)(=O)N(CCO)c2ccccc2CN(C)C/C=C/c2ccccc2)cc1 [CM08-16, 2-hydroxy-S-(4-methoxyphenyl)-N′-[2-({methyl[(2E)-3-phenylprop-2-en-1-yl]amino}methyl)phenyl]ethane-1-sulfonamido]
- Connexon activity at 0.1 μM [1]: 131 thousands of arbitrary fluorescence units
- Connexon activity at 1 μM [1]: 142 thousands of arbitrary fluorescence units
- Connexon activity at 10 μM [1]: 159 thousands of arbitrary fluorescence units
- Connexon activity at 50 μM [1]: 160 thousands of arbitrary fluorescence units

SMILES: COc1ccc(S(=O)(=O)N(CCO)c2ccccc2CN(C)Cc2ccc3ccccc3c2)cc1 [CM08-18, 2-hydroxy-S-(4-methoxyphenyl)-N′-(2-{[methyl(naphthalen-2-ylmethyl)amino]methyl}phenyl)ethane-1-sulfonamido]
- Connexon activity at 0.1 μM [1]: 125 thousands of arbitrary fluorescence units
- Connexon activity at 1 μM [1]: 150 thousands of arbitrary fluorescence units
- Connexon activity at 10 μM [1]: 162 thousands of arbitrary fluorescence units
- Connexon activity at 50 μM [1]: 174 thousands of arbitrary fluorescence units

SMILES: COc1ccc(S(=O)(=O)N(CCO)c2ccccc2CN(C)Cc2ccccc2)cc1 [CM08-33, N-(2-{[benzyl(methyl)amino]methyl}phenyl)-2-hydroxy-S′-(4-methoxyphenyl)ethane-1-sulfonamido]
- Connexon activity at 0.1 μM [1]: 162 thousands of arbitrary fluorescence units
- Connexon activity at 1 μM [1]: 196 thousands of arbitrary fluorescence units
- Connexon activity at 10 μM [1]: 189 thousands of arbitrary fluorescence units
- Connexon activity at 50 μM [1]: 180 thousands of arbitrary fluorescence units

SMILES: COc1ccc(S(=O)(=O)N(CCO)c2ccccc2CN(C)CCCc2ccc(Cl)cc2)cc1 [CM08-40, N-[2-({[3-(4-chlorophenyl)propyl](methyl)amino}methyl)phenyl]-2-hydroxy-S′-(4-methoxyphenyl)ethane-1-sulfonamido]
- Connexon activity at 0.1 μM [1]: 169 thousands of arbitrary fluorescence units
- Connexon activity at 1 μM [1]: 169 thousands of arbitrary fluorescence units
- Connexon activity at 10 μM [1]: 167 thousands of arbitrary fluorescence units
- Connexon activity at 50 μM [1]: 162 thousands of arbitrary fluorescence units

SMILES: CN([C@@H](Cc1ccc(OS(=O)(=O)c2cccc3cnccc23)cc1)C(=O)N1CCN(c2ccccc2)CC1)S(=O)(=O)c1cccc2cnccc12 [KN62, 1-[N,Obis(5-isoquinolinesulfonyl)-N-methyl-L-tyrosyl]-4-phenylpiperazine]
- Nuclear Volume [2]: 10100
- Effect on nuclear (cellular) volume, in words [2]: restitution of normal cellular volume
- >centro (percentage of cells with more than two centrosomes) [3]: 6%
- 2 centro (percentage of cells with two centrosomes) [3]: 32%
- 1 centro (percentage of cells with one centrosome) [3]: 62%
- Effect on centrosome number per cell, in words [3]: returns to close to normal

SMILES: COc1ccc(S(=O)(=O)Nc2ccccc2CN(C)C/C=C/c2ccc(Cl)cc2)cc1 [KN92]
- >centro (percentage of cells with more than two centrosomes) [3]: 20%
- 2 centro (percentage of cells with two centrosomes) [3]: 20%
- 1 centro (percentage of cells with one centrosome) [3]: 60%
- Effect on centrosome number per cell, in words [3]: unchanged
- CamKII inhibitory activity, in words [4]: no CamKII inhibitory activity

SMILES: COc1ccc(S(=O)(=O)N(CCO)c2ccccc2CN(C)C/C=C/c2ccc(Cl)cc2)cc1 [KN93]
- Nuclear Volume [2]: 11000
- Effect on nuclear (cellular) volume, in words [2]: restitution of normal cellular volume
- Connexon activity, KN93 reference column ([1]; KN93 10 μM, 24 hours, WT 230, untreated S3 126-129): 191 thousands of arbitrary fluorescence units
- Effect on progression of locomotor phenotype, in words ([5]; G2 animals, soluble form 1.5 mg/kg i.p. per day): significantly lowers the progression of the phenotype
- Locomotor activity after treatment stopped, in words ([5]; G2 animals, treatment stopped after one month): rapid degradation of the locomotor activity ensued
- Mean Minutes on rotarod, W4 treated ([5]; G2 line, 1.5 mg/kg i.p. per day for one month, T0 3.90, W4 placebo 3.20): 3.6 min
- Mean Minutes on rotarod, W4 treated + 1 month arrest ([5]; G2 line, one month after stopping treatment, placebo + arrest 2.84): 2.9 min
- >centro (percentage of cells with more than two centrosomes) [3]: 7%
- 2 centro (percentage of cells with two centrosomes) [3]: 20%
- 1 centro (percentage of cells with one centrosome) [3]: 73%
- Effect on centrosome number per cell, in words [3]: returns to close to normal
- Effect on connexon activity, in words ([6]; S3 cells treated with KN93): significantly improved though not totally restored
- LY intensity ([6]; S3 fibroblasts, KN93 10 μM, fluorescence 2 hours after lucifer yellow, WT 63, untreated S3 17): 28 +/− 9 arbitrary units
- Degradation of locomotor capacities, in words ([7]; S3 animals, soluble form 1.5 mg/kg i.p. per day): lowered
- Locomotion after stopping the treatment, in words ([7]; S3 animals, treatment stopped): strong degradation of locomotion
- Mean Minutes on rotarod, W4 treated ([7]; S3 line, 1.5 mg/kg i.p. per day for one month, T0 2.7, W4 placebo 2.1): 2.5 min
- Mean Minutes on rotarod, W4 treated + 1 month arrest ([7]; S3 line, one month after stopping treatment, placebo + arrest 1.5): 1.41 min
